# Measured values taken from article PMC6647401, “Phase I dose-escalation study of F14512, a polyamine-vectorized topoisomerase II inhibitor, in patients with platinum-refractory or resistant ovarian cancer” (Investigational New Drugs, 2018).
# “And” between values parts separate entries of the source, which are not always exact repeats. Identical values can stand only once. Like-named read-outs stand apart in the source and are kept apart here.
# Legend:
# [1] = tested on: experimental models; design: method as in PMID 19777159; details: cited from earlier work
# [2] = tested on: SK-OV3 cancer cells; design: method as in PMID 26404751; details: cited from earlier work
# [3] = tested on: patients with platinum-refractory or resistant ovarian cancer; type: in vivo
# Procedure: This was an open-label, dose-escalation, multicenter, phase I study (EudraCT Number: 2012–005798-29) conducted in 3 investigational sites in France. The 10 mg/m^2/day dose of F14512 was planned as a starting dose (DL1) for escalation in cohorts of 3 to 6 patients until the MTD was reached. Dose escalation was based on a standard titration design by using increments of 33% except from the first dose escalation, which could proceed with a dose increment of 50% in the absence of grade 3 neutropenia and dose limiting toxicity (DLT) observed at DL1. Dose escalation then proceeded except if criteria of MTD were met at DL1. In that instance, the 5 mg/m^2/day dose was tested. All patients in a DL had to be followed for at least 3 weeks (cycle 1) for DLT evaluation before the first patient of the next dose level started treatment. The final decision to proceed to the next DL was made by the safety committee at the dose-escalation meeting. The MTD was defined as the DL at which 2/3 or 2/6 patients experienced a DLT during the first cycle. The Recommended Dose (RD) was the DL immediately below the MTD. A total of 10 evaluable patients had to be treated at the RD.
# F14512 was administered as three-hour daily infusion through a central venous catheter for 3 consecutive days every 3 weeks depending on recovery to normal hematopoiesis or recovery of non-hematological toxicities to grade 1. During the first cycle, G- and GM-CSF use was prohibited, however, there were no such constraints in subsequent cycles.
# DLTs were defined as one of the following drug-related AEs occurring during the first cycle: grade 4 neutropenia ≥ 7 days, grade 4 thrombocytopenia, or grade 3 thrombocytopenia requiring transfusion and/or associated with bleeding, grade 3 or 4 neutropenia concomitant with grade ≥ 3 infection or febrile neutropenia, any grade ≥ 3 gastrointestinal toxicity including grade ≥ 3 nausea, vomiting or diarrhea if persistent despite optimal antiemetic or anti-diarrheal treatment, any other drug-related grade ≥ 3 toxicity, any drug-related AE that required a delay of ≥ 2 weeks of the administration of cycle 2.
# [4] = tested on: human cancer cell lines; design: method as in PMID 19047165; details: in vitro; cited from earlier work
# [5] = tested on: patients with platinum-refractory or resistant ovarian cancer; experiment: Safety: study drug-related adverse events (NCI-CTC v4.0); type: in vivo, human
# Procedure: (§1) Toxicities were graded according to National Cancer Institute - Common Toxicity Criteria (NCI - CTC) for adverse events (AEs) (version 4.0). DLT determination criteria and safety assessments are described in the Online Resource. Response was assessed by using GCIG response criteria incorporating RECIST version 1.1 and CA-125. Plasma PK assessments and statistical methods are described in the Online Resource.
# Safety was assessed by physical examination on days 1, 2 and 3 during each cycle. Complete blood cell counts were performed on days 4, 6, 8, 10, 12 and 15 of the first cycle, on day 1 of each subsequent cycle and then on a weekly basis thereafter. Serum chemistry was performed weekly during the first cycle and at the end of each cycle thereafter except serum magnesium and potassium which were measured twice weekly during the first week of each cycle and then, weekly for the following weeks. ECGs were performed at baseline and on day 1 of each cycle.
# [6] = tested on: relapsed or refractory acute myeloid leukemia (AML); design: method as in earlier work; details: single agent, AML patients at first relapse; cited from earlier work
# [7] = tested on: PTS(+) A2780R cisplatin-resistant cell line; design: method as in PMID 26404751; details: preliminary studies; cited from earlier work
# [8] = tested on: platinum-refractory or resistant ovarian cancer; experiment: Efficacy by GCIG response criteria (RECIST 1.1 and CA-125); type: in vivo, human
# Procedure: as §1
# [9] = Plasma pharmacokinetics (LC/MS/MS); type: in vivo, human; details: for AUCinf/dose level of F14512: n = 11, mean [range], three-hour infusion
# Procedure: Plasma PK was studied after the administrations on days 1 and 3 of cycle 1 (pre-dose, T0+1.5 h, T0+3 h, T0+3.5 h, T0+4 h, T0+6 h T0+12 h, T0+24 h) and day 1 of cycle 2 (pre-dose, T0+3.5 h, T0+8 h, T0+24 h). F14512, its metabolite F16490 and the metabolite BG (an additional metabolite peak found in human during exploratory metabolite identification analysis and not retrieved in animal species) were assayed in plasma using liquid chromatography coupled with tandem mass spectrometry (LC/MS/MS).
# Continuous data were summarized with frequency, median, range, mean, standard deviation and standard error if relevant. Categorical data were presented as frequencies and percentages. 95% confidence intervals (CI) were calculated following the exact method. PK parameters were compared for reproducibility between day 1 and day 3 of cycle 1 for F14512 and its metabolite F16490 using a pairwise t-test or a Wilcoxon test according to the normality of their distribution. Dose-proportionality of PK parameters for F14512 and its metabolite F16490 was investigated by graphical display only. A p value <0.05 was considered statistically significant. Data were analyzed using the SAS® system software version 9.3 for Windows® (Statistical Analysis System, Cary, NC, USA).
# [10] = tested on: platinum-resistant ovarian cancer (PROC); details: cited from earlier work
# [11] = Overall n = 11 (both dose levels), worse grade by patient
smiles,measurement,setting,value
COc1cc([C@@H]2c3cc4c(cc3[C@@H](NC(=O)CNCCCNCCCCNCCCN)[C@H]3COC(=O)[C@H]23)OCO4)cc(OC)c1O [F14512],Tumor response in experimental models,[1]; after intravenous or oral administration,complete tumor regression
same,Experimental models with antitumor efficacy,[1]; in vivo,13/19
same,Response rate in experimental models,[1]; in vivo,68%
same,Increased sensitivity to cytotoxicity compared to etoposide,[2],ten-fold
same,Number of DLTs reported,"[3]; 5 mg/m^2/day, in 2/6 treated patients",2 DLTs
same,Number of DLTs reported,"[3]; 10 mg/m^2/day, in 3/4 evaluable patients",6 DLTs
same,Permanent treatment discontinuation because of study drug-related toxicity,[3]; in vivo,5 patients
same,Maximum tolerated dose (MTD),"[3]; three-hour daily infusion, 3 consecutive days every 3 weeks, both dose levels defined as MTD",5 mg/m^2/day and 10 mg/m^2/day
same,Cell lines with superior anti-proliferative activity,[4],21/29
same,"Study drug-related AE: Confusional state, Overall grades","[5]; 5 mg/m^2/day, n = 6, worse grade by patient",1 (16.7) N (%)
same,"Grade 4 neutropenia, cycles affected / cycles administered",[5]; DL 5 mg/m^2/day,14/16
same,Neutropenic infection,[5]; DL 5 mg/m^2/day,1 patient
same,"Grade 4 neutropenia, cycles affected / cycles administered",[5]; DL 10 mg/m^2/day,12/13
same,"Study drug-related AE: Alopecia, Overall grades",[5]; [11],2 (18.2) N (%)
same,"Study drug-related AE: Any related TESS, Grade 3",[5]; [11],6 (54.5) N (%)
same,"Study drug-related AE: Any related TESS, Grade 4",[5]; [11],1 (9.1) N (%)
same,"Study drug-related AE: Any related TESS, Overall grades",[5]; [11],11 (100.0) N (%)
same,"Study drug-related AE: Asthenia, Grade 3",[5]; [11],2 (18.2) N (%)
same,"Study drug-related AE: Asthenia, Overall grades",[5]; [11],9 (81.8) N (%)
same,"Study drug-related AE: Blood and lymphatic system disorders, Grade 3",[5]; [11],4 (36.4) N (%)
same,"Study drug-related AE: Blood and lymphatic system disorders, Grade 4",[5]; [11],1 (9.1) N (%)
same,"Study drug-related AE: Blood and lymphatic system disorders, Overall grades",[5]; [11],5 (45.5) N (%)
same,"Study drug-related AE: Confusional state, Overall grades",[5]; [11],1 (9.1) N (%)
same,"Study drug-related AE: Constipation, Overall grades",[5]; [11],2 (18.2) N (%)
same,"Study drug-related AE: Diarrhea, Overall grades",[5]; [11],2 (18.2) N (%)
same,"Study drug-related AE: Dysgeusia, Overall grades",[5]; [11],1 (9.1) N (%)
same,"Study drug-related AE: Dyspepsia, Overall grades",[5]; [11],1 (9.1) N (%)
same,"Study drug-related AE: Febrile neutropenia, Grade 3",[5]; [11],4 (36.4) N (%)
same,"Study drug-related AE: Febrile neutropenia, Overall grades",[5]; [11],4 (36.4) N (%)
same,"Study drug-related AE: Gastrointestinal disorders, Grade 3",[5]; [11],2 (18.2) N (%)
same,"Study drug-related AE: Gastrointestinal disorders, Overall grades",[5]; [11],6 (54.5) N (%)
same,"Study drug-related AE: General disorders and administration site conditions, Grade 3",[5]; [11],2 (18.2) N (%)
same,"Study drug-related AE: General disorders and administration site conditions, Overall grades",[5]; [11],9 (81.8) N (%)
same,"Study drug-related AE: Gingivitis, Overall grades",[5]; [11],1 (9.1) N (%)
same,"Study drug-related AE: Infections and infestations, Overall grades",[5]; [11],1 (9.1) N (%)
same,"Study drug-related AE: Muscle spasms, Overall grades",[5]; [11],2 (18.2) N (%)
same,"Study drug-related AE: Musculoskeletal and connective tissue disorders, Overall grades",[5]; [11],2 (18.2) N (%)
same,"Study drug-related AE: Myalgia, Overall grades",[5]; [11],1 (9.1) N (%)
same,"Study drug-related AE: Nausea, Grade 3",[5]; [11],2 (18.2) N (%)
same,"Study drug-related AE: Nausea, Overall grades",[5]; [11],6 (54.5) N (%)
same,"Study drug-related AE: Nervous system disorders, Overall grades",[5]; [11],1 (9.1) N (%)
same,"Study drug-related AE: Neutropenia, Overall grades",[5]; [11],1 (9.1) N (%)
same,"Study drug-related AE: Neutropenic infection, Overall grades",[5]; [11],1 (9.1) N (%)
same,"Study drug-related AE: Night sweats, Overall grades",[5]; [11],1 (9.1) N (%)
same,"Study drug-related AE: Onycholysis, Overall grades",[5]; [11],1 (9.1) N (%)
same,"Study drug-related AE: Psychiatric disorders, Overall grades",[5]; [11],1 (9.1) N (%)
same,"Study drug-related AE: Pyrexia, Overall grades",[5]; [11],1 (9.1) N (%)
same,Study drug-related deaths,[5]; all 11 patients,no study drug-related deaths
same,Vomiting,[5]; all 11 patients (36%),4 patients
same,Metabolism and nutrition disorder with decreased appetite,[5]; all 11 patients (46%),5 patients
same,Nausea,[5]; all 11 patients (55%),6 patients
same,"Grade 4 neutropenia, share of treated patients","[5]; all 11 patients, both dose levels",90.9%
same,Study drug-related SAEs per dose level,[5]; at each DL (10 and 5 mg/m^2/day),3 patients
same,"Grade 4 neutropenia, cycles affected / cycles administered",[5]; both dose levels,26/29
same,Gastrointestinal disorders,[5]; in vivo,6 patients
same,General disorders (mainly asthenia),[5]; in vivo,9 patients
same,Grade 3 febrile neutropenia,[5]; in vivo,4 patients
same,Grade 4 neutropenia reported as serious drug-related AE,[5]; in vivo,1 patient
same,"Grade 4 neutropenia, share of cycles administered",[5]; in vivo,89.7%
same,"Study drug-related AE: Skin and subcutaneous tissue disorders, Overall grades",[5]; in vivo,4 (36.4) N (%)
same,"Study drug-related AE: Stomatitis, Overall grades",[5]; in vivo,1 (9.1) N (%)
same,"Study drug-related AE: Vomiting, Overall grades",[5]; in vivo,4 (36.4) N (%)
same,Study drug-related serious AEs (SAEs),[5]; in vivo,6 patients
same,Complete remissions,[6],36%
same,Antitumor activity in ovarian tumor models,[7],confirmed the antitumor activity
same,Objective response,"[8]; 5 patients evaluable for efficacy, GCIG criteria",no objective response
same,Stable disease (SD) as best overall response,"[8]; of 5 evaluable patients (40%), both received 9 cycles, 1 at each DL",2 patients
same,Dose dependent PK parameters versus dose level,"[9]; 5 versus 10 mg/m^2/day, no statistical analysis",increased with DL
same,Cltot,"[9]; D1 of cycle 1, n = 11, mean [range]",13.2 [6.17–22.4] L/h
same,AUCinf/dose level of F14512,"[9]; D1 of cycle 1, plasma",152 [67.7–308]
same,Cltot,"[9]; D3 of cycle 1, n = 11, mean [range]",12.9 [5.92–23.1] L/h
same,AUCinf/dose level of F14512,"[9]; D3 of cycle 1, plasma",156 [65.9–270]
same,Difference of PK parameters between Day 1 and Day 3,"[9]; cycle 1, pairwise t-test or Wilcoxon test",not statistically significant
CC(=O)O[C@H]1C(=O)[C@@]2(C)[C@H]([C@H](OC(=O)c3ccccc3)[C@]3(O)C[C@H](OC(=O)[C@H](O)[C@@H](NC(=O)c4ccccc4)c4ccccc4)C(C)=C1C3(C)C)[C@]1(OC(C)=O)CO[C@@H]1C[C@@H]2O [paclitaxel],Progression free survival,[10],2–6 months
same,Response rates,[10],0%–30%
